Experimental data: ChEMBL document CHEMBL3351364 (J Med Chem, 2014)

Legend:
[1] = Oral bioavailability in beagle dog at 1 mg/kg; assay type: ADME, organism-based, Canis lupus familiaris; settings: in vivo
[2] = Half life in monkey at 1 mg/kg, iv as 30 mins infusion; assay type: ADME, organism-based, Macaca mulatta; parameters: dose 1 mg/kg, route intravenous; settings: rhesus monkey, in vivo
[3] = Oral bioavailability in monkey at 5 mg/kg; assay type: ADME, organism-based, Macaca mulatta; settings: rhesus monkey, in vivo
[4] = Oral bioavailability in Sprague-Dawley rat at 2 mg/kg; assay type: ADME, organism-based; settings: in vivo
[5] = Cmax in monkey at 5 mg/kg, po; assay type: ADME, organism-based, Macaca mulatta; parameters: dose 5 mg/kg, route oral; settings: rhesus monkey, in vivo
[6] = Half life in beagle dog at 1 mg/kg, iv as 30 mins infusion; assay type: ADME, organism-based, Canis lupus familiaris; parameters: dose 1 mg/kg, route intravenous; settings: in vivo
[7] = Half life in Sprague-Dawley rat at 1 mg/kg, iv as 30 mins infusion; assay type: ADME, organism-based; parameters: dose 1 mg/kg, route intravenous; settings: in vivo
Salmonella typhimurium [8] = experiment: Mutagenicity in Salmonella typhimurium TA100 assessed as increase in number of colonies by Ames test relative to control; assay type: toxicity, organism-based; settings: salmonella enterica subsp. enterica serovar typhimurium
West Nile virus = experiment: Antiviral activity against West Nile virus NY99 infected in african green monkey Vero-76 cells after 3 days; assay type: functional, organism-based; settings: NY99, Vero 76, 72 h
[9] = Solubility of the compound in water at pH 7.4; assay type: physicochemical
[10] = Half life in Sprague-Dawley rat at 2.8 mg/kg, iv as 30 mins infusion; assay type: ADME, organism-based; parameters: dose 2.8 mg/kg, route intravenous; settings: in vivo
Salmonella typhimurium [11] = experiment: Mutagenicity in Salmonella typhimurium TA98 assessed as increase in number of colonies by Ames test relative to control; assay type: toxicity, organism-based; settings: salmonella enterica subsp. enterica serovar typhimurium
[12] = Metabolic stability in rat liver microsomes assessed as residual compound at 1 uM after 60 mins; assay type: ADME; settings: read-out: Stability
[13] = Cytotoxicity against human HuH7 cells; assay type: cell-based, Huh-7
[14] = Oral bioavailability in Sprague-Dawley rat at 11.2 mg/kg; assay type: ADME, organism-based; settings: in vivo
[15] = Cytotoxicity against West Nile virus NY99 infected african green monkey Vero 76 cells after 3 days; assay type: cell-based; settings: chlorocebus sabaeus, Vero 76 cells infected with West Nile virus NY99
[16] = Metabolic stability in human liver microsomes assessed as residual compound at 1 uM after 60 mins; assay type: ADME; settings: read-out: Stability
Hepatitis C virus [17] = experiment: Antiviral activity against HCV genotype 1b infected in human Huh7 cells after 3 days by cell-based replicon assay in presence of 40% normal human serum; assay type: functional, Hepacivirus hominis; settings: Huh-7, 72 h
Rattus norvegicus [18] = organism: Rattus norvegicus; experiment: Toxicity in rat by 12-weeks study; assay type: organism-based; settings: in vivo, 2016 h
Rattus norvegicus [19] = organism: Rattus norvegicus; experiment: Toxicity in male rat assessed as adverse effect on reproductive organ; assay type: organism-based; settings: in vivo
Hepatitis C virus [20] = experiment: Antiviral activity against HCV genotype 4a; assay type: functional, Hepacivirus hominis
[21] = Half life in beagle dog at 10 mg/kg, po; assay type: ADME, organism-based, Canis lupus familiaris; parameters: dose 10 mg/kg, route oral; settings: in vivo
[22] = Lipophilicity, log P of the compound; assay type: physicochemical; settings: octanol/water
Cytochrome P450 2C9 = Cytochrome P450 2C9 (Homo sapiens, UniProt P11712); experiment: Inhibition of human liver CYP2C9; assay type: ADME
Salmonella typhimurium [23] = experiment: Mutagenicity in Salmonella typhimurium TA1535 assessed as increase in number of colonies by Ames test relative to control; assay type: toxicity, organism-based; settings: salmonella enterica subsp. enterica serovar typhimurium
[24] = Solubility of the compound in water at pH 4; assay type: physicochemical
[25] = Therapeutic index, ratio of CC50 for human Huh7 cells to EC50 for HCV genotype 1b infected in human Huh7 cells; assay type: cell-based, Huh-7; settings: read-out: Ratio CC50/EC50
Cytochrome P450 2D6 = Cytochrome P450 2D6 (Homo sapiens, UniProt P10635); experiment: Inhibition of human liver CYP2D6; assay type: ADME
[26] = (§1) Toxicity in ip dosed female Wistar rat; assay type: organism-based; settings: female, Wistar, in vivo
Rattus norvegicus [27] = experiment: as §1; assay type: organism-based; settings: in vivo
Yellow fever virus = experiment: Antiviral activity against Yellow fever virus infected in african green monkey Vero-76 cells after 3 days; assay type: functional, organism-based; settings: Vero 76, 72 h
Rattus norvegicus [28] = organism: Rattus norvegicus; experiment: Toxicity in female rat assessed as adverse effect on reproductive organ; assay type: organism-based; settings: in vivo
Cytochrome P450 2C19 = Cytochrome P450 2C19 (Homo sapiens, UniProt P33261); experiment: Inhibition of human liver CYP2C19; assay type: ADME
[29] = molecular target: Voltage-gated inwardly rectifying potassium channel KCNH2 (Homo sapiens, UniProt Q12809); experiment: Binding affinity to human ERG at 3 to 30 uM
[30] = Half life in beagle dog at 5 mg/kg, iv as 30 mins infusion; assay type: ADME, organism-based, Canis lupus familiaris; parameters: dose 5 mg/kg, route intravenous; settings: in vivo
[31] = Half life in Sprague-Dawley rat at 11.2 mg/kg, po; assay type: ADME, organism-based; parameters: dose 11.2 mg/kg, route oral; settings: in vivo
Hepatitis C virus [32] = experiment: Antiviral activity against HCV genotype 2a; assay type: functional, Hepacivirus hominis
[33] = Oral bioavailability in beagle dog at 10 mg/kg; assay type: ADME, organism-based, Canis lupus familiaris; settings: in vivo
[34] = Cytotoxicity against Dengue virus infected african green monkey Vero 76 cells after 3 days; assay type: cell-based; settings: chlorocebus sabaeus, Vero 76 cells infected with Dengue virus
Salmonella typhimurium [35] = experiment: Mutagenicity in Salmonella typhimurium TA1537 assessed as increase in number of colonies by Ames test relative to control; assay type: toxicity, organism-based; settings: salmonella enterica subsp. enterica serovar typhimurium
Cytochrome P450 3A4 = Cytochrome P450 3A4 (Homo sapiens, UniProt P08684); experiment: Inhibition of human liver CYP3A4; assay type: ADME
Canis familiaris = organism: Canis familiaris; experiment: Toxicity in dog by 6-weeks study; assay type: organism-based, Canis lupus familiaris; settings: in vivo, 1008 h
[36] = Cytotoxicity against Yellow fever virus infected african green monkey Vero 76 cells after 3 days; assay type: cell-based; settings: chlorocebus sabaeus, Vero 76 cells infected with Yellow fever virus
Dengue virus = experiment: Antiviral activity against Dengue virus infected in african green monkey Vero-76 cells after 3 days; assay type: functional, organism-based; settings: Vero 76, 72 h
[37] = Solubility of the compound in alcohol; assay type: physicochemical
Hepatitis C virus [38] = experiment: Antiviral activity against HCV genotype 1b infected in human Huh7 cells after 3 days by cell-based replicon assay in presence of 10% fetal bovine serum; assay type: functional, Hepacivirus hominis; settings: Huh-7, 72 h
[39] = (§2) Toxicity in ip dosed male Wistar rat; assay type: organism-based; settings: male, Wistar, in vivo
Rattus norvegicus [40] = experiment: as §2; assay type: organism-based; settings: in vivo
[41] = Toxicity in ip dosed SHK mouse; assay type: organism-based; settings: in vivo
[42] = (§3) Toxicity in po dosed female SHK mouse; assay type: organism-based; settings: female, SHK, in vivo
Mus musculus [43] = experiment: as §3; assay type: organism-based; settings: in vivo
[44] = Solubility of the compound in dimethyl sulfoxide; assay type: physicochemical
[45] = (§4) Toxicity in ip dosed Wistar rat; assay type: organism-based; settings: Wistar, in vivo
Rattus norvegicus [46] = experiment: as §4; assay type: organism-based; settings: in vivo
[47] = (§5) Toxicity in po dosed male SHK mouse; assay type: organism-based; settings: male, SHK, in vivo
Mus musculus [48] = experiment: as §5; assay type: organism-based; settings: in vivo
Cytochrome P450 1A2 = molecular target: T1, Cytochrome P450 1A2 (Homo sapiens, UniProt P05177); experiment: Inhibition of human liver CYP1A2; assay type: ADME
T1 sequence (P05177 whole entry): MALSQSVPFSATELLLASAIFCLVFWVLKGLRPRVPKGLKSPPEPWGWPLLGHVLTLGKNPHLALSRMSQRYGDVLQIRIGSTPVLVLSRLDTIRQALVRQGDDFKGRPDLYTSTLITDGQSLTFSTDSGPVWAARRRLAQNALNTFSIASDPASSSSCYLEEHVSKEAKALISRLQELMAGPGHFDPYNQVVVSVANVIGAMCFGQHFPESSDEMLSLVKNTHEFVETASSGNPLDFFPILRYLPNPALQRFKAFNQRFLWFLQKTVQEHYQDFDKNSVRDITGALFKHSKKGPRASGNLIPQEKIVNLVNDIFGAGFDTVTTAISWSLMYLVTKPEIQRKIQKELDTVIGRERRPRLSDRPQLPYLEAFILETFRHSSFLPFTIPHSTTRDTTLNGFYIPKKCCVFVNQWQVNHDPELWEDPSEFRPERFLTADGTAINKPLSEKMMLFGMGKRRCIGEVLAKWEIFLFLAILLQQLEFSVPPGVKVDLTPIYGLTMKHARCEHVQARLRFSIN

[49] = Solubility of the compound in water at pH 2; assay type: physicochemical
[50] = Metabolic stability in dog liver microsomes assessed as residual compound at 1 uM after 60 mins; assay type: ADME, Canis lupus familiaris; settings: read-out: Stability
Hepatitis C virus [51] = experiment: Antiviral activity against HCV genotype 1a; assay type: functional, Hepacivirus hominis; settings: subtype 1a
[52] = Lipophilicity, log D of the compound at pH 7.4; assay type: physicochemical; settings: buffer

Chain of Cytochrome P450 2C9 (P11712 whole entry): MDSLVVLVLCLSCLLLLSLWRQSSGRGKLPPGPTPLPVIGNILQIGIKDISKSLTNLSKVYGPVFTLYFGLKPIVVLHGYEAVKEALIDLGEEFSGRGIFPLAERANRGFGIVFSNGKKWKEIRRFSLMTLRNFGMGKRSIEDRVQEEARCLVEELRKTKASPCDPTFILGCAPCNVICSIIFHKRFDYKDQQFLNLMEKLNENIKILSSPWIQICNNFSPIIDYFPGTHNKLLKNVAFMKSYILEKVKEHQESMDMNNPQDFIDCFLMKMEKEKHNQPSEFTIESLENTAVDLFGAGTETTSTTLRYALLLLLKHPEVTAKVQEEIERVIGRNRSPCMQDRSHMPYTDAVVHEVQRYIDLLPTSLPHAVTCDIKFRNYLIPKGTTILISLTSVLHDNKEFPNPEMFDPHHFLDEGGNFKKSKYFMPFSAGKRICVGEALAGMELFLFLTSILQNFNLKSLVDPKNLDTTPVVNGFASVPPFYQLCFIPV
Chain of Cytochrome P450 2D6 (P10635 whole entry): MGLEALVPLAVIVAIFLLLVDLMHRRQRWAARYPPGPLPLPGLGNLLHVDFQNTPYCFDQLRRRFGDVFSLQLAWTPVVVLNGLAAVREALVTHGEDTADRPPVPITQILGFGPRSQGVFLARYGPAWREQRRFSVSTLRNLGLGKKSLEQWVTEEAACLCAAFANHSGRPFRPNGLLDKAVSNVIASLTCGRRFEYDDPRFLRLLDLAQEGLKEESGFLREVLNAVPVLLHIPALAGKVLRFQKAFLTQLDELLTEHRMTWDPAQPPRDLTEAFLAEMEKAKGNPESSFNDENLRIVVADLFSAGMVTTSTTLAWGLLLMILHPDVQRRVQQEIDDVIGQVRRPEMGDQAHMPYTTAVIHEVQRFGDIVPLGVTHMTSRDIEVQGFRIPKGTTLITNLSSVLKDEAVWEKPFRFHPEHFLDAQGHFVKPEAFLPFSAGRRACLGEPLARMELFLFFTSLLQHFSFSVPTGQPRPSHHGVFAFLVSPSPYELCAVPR
Chain of Cytochrome P450 3A4 (P08684 whole entry): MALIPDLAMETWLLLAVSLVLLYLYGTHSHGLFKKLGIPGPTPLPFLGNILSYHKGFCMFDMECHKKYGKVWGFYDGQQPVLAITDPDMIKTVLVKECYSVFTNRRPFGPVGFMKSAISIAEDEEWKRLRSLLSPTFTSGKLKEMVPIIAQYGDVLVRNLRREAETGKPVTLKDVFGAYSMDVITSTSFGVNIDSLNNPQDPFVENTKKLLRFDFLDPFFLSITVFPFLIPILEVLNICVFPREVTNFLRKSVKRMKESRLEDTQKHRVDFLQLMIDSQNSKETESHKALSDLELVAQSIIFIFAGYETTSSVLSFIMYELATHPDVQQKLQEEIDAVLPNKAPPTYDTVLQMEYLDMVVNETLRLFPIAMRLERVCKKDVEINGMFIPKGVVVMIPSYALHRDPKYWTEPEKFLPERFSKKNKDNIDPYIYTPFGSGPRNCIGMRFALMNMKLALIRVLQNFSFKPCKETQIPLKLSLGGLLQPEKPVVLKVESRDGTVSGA
Chain of Cytochrome P450 2C19 (P33261 whole entry): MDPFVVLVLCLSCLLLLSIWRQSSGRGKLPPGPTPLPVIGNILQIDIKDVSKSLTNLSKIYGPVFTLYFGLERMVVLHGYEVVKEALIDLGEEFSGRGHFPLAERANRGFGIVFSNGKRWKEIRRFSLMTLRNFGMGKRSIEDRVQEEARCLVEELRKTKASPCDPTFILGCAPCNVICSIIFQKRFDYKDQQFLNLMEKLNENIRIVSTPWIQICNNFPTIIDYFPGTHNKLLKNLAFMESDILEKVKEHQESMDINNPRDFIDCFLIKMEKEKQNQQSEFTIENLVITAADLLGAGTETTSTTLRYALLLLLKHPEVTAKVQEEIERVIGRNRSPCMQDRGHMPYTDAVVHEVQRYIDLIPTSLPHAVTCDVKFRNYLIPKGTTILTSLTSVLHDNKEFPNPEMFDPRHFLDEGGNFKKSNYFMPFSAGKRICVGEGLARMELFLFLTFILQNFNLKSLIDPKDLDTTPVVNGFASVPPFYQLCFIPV
Chain of Voltage-gated inwardly rectifying potassium channel KCNH2 (Q12809 whole entry, the tested form may be a part): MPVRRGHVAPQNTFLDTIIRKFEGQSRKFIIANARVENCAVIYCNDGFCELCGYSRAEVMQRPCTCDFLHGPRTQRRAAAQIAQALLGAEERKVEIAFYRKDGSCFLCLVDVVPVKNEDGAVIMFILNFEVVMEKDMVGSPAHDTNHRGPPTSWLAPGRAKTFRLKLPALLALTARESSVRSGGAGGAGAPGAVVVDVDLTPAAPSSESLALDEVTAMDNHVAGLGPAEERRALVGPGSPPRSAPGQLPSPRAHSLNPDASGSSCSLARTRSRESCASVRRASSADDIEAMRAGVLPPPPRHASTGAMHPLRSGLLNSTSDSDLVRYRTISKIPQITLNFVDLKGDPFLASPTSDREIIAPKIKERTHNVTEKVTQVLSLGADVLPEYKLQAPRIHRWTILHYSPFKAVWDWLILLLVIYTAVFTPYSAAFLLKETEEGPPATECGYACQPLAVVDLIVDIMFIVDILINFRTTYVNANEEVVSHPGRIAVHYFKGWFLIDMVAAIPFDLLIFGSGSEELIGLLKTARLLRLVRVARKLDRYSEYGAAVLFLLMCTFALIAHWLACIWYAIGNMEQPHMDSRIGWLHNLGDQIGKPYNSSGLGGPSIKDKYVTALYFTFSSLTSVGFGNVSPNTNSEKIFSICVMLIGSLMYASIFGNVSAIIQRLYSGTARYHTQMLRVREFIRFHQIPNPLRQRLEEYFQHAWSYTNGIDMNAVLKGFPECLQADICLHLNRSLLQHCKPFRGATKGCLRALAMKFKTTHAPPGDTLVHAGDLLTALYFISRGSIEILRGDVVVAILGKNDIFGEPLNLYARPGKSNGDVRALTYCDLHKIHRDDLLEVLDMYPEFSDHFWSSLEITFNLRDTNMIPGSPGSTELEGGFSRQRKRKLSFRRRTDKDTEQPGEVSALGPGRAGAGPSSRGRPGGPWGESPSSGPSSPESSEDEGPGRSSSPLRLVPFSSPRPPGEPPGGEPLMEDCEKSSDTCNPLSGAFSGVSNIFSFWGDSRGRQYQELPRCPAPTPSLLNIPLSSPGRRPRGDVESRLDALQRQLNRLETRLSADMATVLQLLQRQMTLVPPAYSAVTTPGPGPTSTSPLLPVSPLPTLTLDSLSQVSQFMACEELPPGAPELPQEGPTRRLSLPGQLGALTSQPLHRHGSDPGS

`c1cc2oc(-c3ccc(-c4ncc([C@@H]5CCCN5)[nH]4)cc3)cc2cc1-c1cnc([C@@H]2CCCN2)[nH]1` gave a bioavailability [1] of 108%, a half-life [2] of 3 h and a bioavailability [3] of 12%. The bioavailability [4] was 38%, the Cmax [5] was 180 nM and the half-life [6] was 7.7 h. For the same compound, the half-life [7] was 2 h.
For `COC(=O)N[C@H](C(=O)N1CCCC1c1ncc(C#CC#Cc2ccc(-c3cnc(C4CCCN4C(=O)[C@@H](NC(=O)OC)C(C)C)[nH]3)cc2)[nH]1)C(C)C.Cl` (single isomer, unassigned; 13a), the Activity (Salmonella typhimurium [8]) was “Non-toxic”, the EC50 (West Nile virus) was over 26.3 µM and the solubility [9] was 433 µM. The half-life [10] was 3.4 h, the Activity (Salmonella typhimurium [11]) was “Non-toxic” and the remaining at 1 h, 1 µM [12] was 70.8%. It also gave a CC50 [13] of 17.3 µM, a bioavailability [14] of 65% and a CC50 at 72 h [15] of 26.3 µM. For the same compound, the remaining at 1 h, 1 µM [16] was 81.5%, the EC50 (Hepatitis C virus [17]) was 21 pM and the Activity (Rattus norvegicus [18]) was “Non-toxic”. For the same compound, the LD84 (Rattus norvegicus [18]) was 651.3 mg/kg, the Activity (Rattus norvegicus [19]) was “Non-toxic” and the LD84 (Rattus norvegicus [19]) was 593.2 mg/kg. It also gave an EC50 (Hepatitis C virus [20]) of 6.5 pM, a half-life [21] of 4.5 h and a logP [22] of 4.99. The IC50 (Cytochrome P450 2C9) was over 10 µM, the Activity (Salmonella typhimurium [23]) was “Non-toxic” and the solubility [24] was 2200 µM. It also gave a selectivity ratio [25] of over 5000, an IC50 (Cytochrome P450 2D6) of over 10 µM and an LD50 [26] of 412 mg/kg. For the same compound, the LD10 (Rattus norvegicus [27]) was 228.4 mg/kg, the EC50 (Yellow fever virus) was over 23.5 µM and the Activity (Rattus norvegicus [28]) was “Non-toxic”. For the same compound, the IC50 (Cytochrome P450 2C19) was over 10 µM, the Activity [29] was under 10% and the half-life [30] was 4.9 h. For the same compound, the half-life [31] was 3 h, the EC50 (Hepatitis C virus [32]) was 51 pM and the bioavailability [33] was 58%. For the same compound, the CC50 at 72 h [34] was 28.4 µM, the Activity (Salmonella typhimurium [35]) was “Non-toxic” and the IC50 (Cytochrome P450 3A4) was over 10 µM. For the same compound, the Activity (Canis familiaris) was “Non-toxic”, the LD84 (Canis familiaris) was 485.6 mg/kg and the CC50 at 72 h [36] was 23.5 µM. It also gave an EC50 (Dengue virus) of over 28.4 µM, a solubility [37] of at least 10 µM and an EC50 (Hepatitis C virus [38]) of 3.4 pM. It also gave an LD50 [39] of 349 mg/kg, an LD10 (Rattus norvegicus [40]) of 228.6 mg/kg and an LD50 [41] of over 1600 mg/kg. The LD50 [42] was 3010 mg/kg, the LD10 (Mus musculus [43]) was 1160.1 mg/kg and the LD16 (Mus musculus [43]) was 1565.7 mg/kg. It also gave an LD84 (Mus musculus [43]) of 4445.3 mg/kg, a solubility [44] of at least 10 µM and an LD50 [45] of 395 mg/kg. It also gave an LD10 (Rattus norvegicus [46]) of 234.2 mg/kg, an LD50 [47] of 3440 mg/kg and an LD10 (Mus musculus [48]) of 2320.3 mg/kg. The LD16 (Mus musculus [48]) was 2565.4 mg/kg, the LD84 (Mus musculus [48]) was 4305.3 mg/kg and the IC50 (Cytochrome P450 1A2) was over 10 µM. The solubility [49] was 208 µM, the remaining at 1 h, 1 µM [50] was 84.7% and the EC50 (Hepatitis C virus [51]) was 59 pM. For the same compound, the logD [52] was 4.46.
